From ChEMBL document CHEMBL4340505, “000Synthesis of new α-aminophosphonates: Evaluation as anti-inflammatory agents and QSAR studies” (2019) come the findings set out here.

Molecules are shown by their SMILES. The source made the active and inactive calls. No cut-off for these calls is given here.

Experiment [1] deals with Mus musculus. As to the kind of experiment: Antiinflammatory activity in ICR mouse assessed as inhibition of TPA-induced ear edema by measuring reduction in weight of ear punches applied topically measured 4 hrs post TPA-challenge. It is filed as functional.
In experiment [2] the test system is Mus musculus. The experiment is described as follows: Potency index, ratio of indomethacin ED50 to test compound ED50 for antiinflammatory activity in ICR mouse assessed as inhibition of TPA-induced ear edema by measuring reduction in weight of ear punches applied topically. Type of experiment: functional.
In experiment [3] the test system is Mus musculus. As to the kind of experiment: Antiinflammatory activity in TPA-induced ICR mouse ear edema model assessed as reduction in number of neutrophils at 5.7 mg/ear applied topically measured 4 hrs post-TPA challenge by giemsa staining-based microscopic method. Type of experiment: functional, organism-based.
Experiment [4] concerns Mus musculus. As to the kind of experiment: Antiinflammatory activity in TPA-induced ICR mouse ear edema model assessed as reduction in neutrophil content AUC at 5.7 mg/ear applied topically measured 4 hrs post-TPA challenge by giemsa staining-based microscopic method relative to control. It is filed as functional. Set-up: scale not given: the % may be the effect or the level left.

Experiment [5] concerns Mus musculus. As to the kind of experiment: Antiinflammatory activity in ICR mouse assessed as inhibition of TPA-induced ear edema by measuring reduction in weight of ear punches applied topically measured 4 hrs post TPA-challenge relative to control. It is filed as functional.
Experiment [6] has as its system Mus musculus. As to the kind of experiment: Antiinflammatory activity in TPA-induced ICR mouse ear edema model assessed as reduction in monocytes content AUC at 5.7 mg/ear applied topically measured 4 hrs post TPA-challenge giemsa staining-based microscopic method. It is filed as functional. Also noted: scale not given: the % may be the effect or the level left.
For experiment [7], the system named is Mus musculus. As to the kind of experiment: Antiinflammatory activity in TPA-induced ICR mouse ear edema model assessed as reduction in neutrophil content at 5.7 mg/ear applied topically by giemsa staining-based microscopic method. It is filed as functional, organism-based. To be noted: TDE = time-dependent effect.
Experiment [8] has as its system Mus musculus. As to the kind of experiment: Antiinflammatory activity in TPA-induced ICR mouse ear edema model assessed as reduction in monocyte content at 5.7 mg/ear applied topically by giemsa staining-based microscopic method. Type of experiment: functional, organism-based. Conditions: TDE = time-dependent effect.
The subject of experiment [9] is Mus musculus. As to the kind of experiment: Antiinflammatory activity in TPA-induced ICR mouse ear edema model assessed as reduction in number of neutrophils at 10 mg/ear applied topically measured 4 hrs post-TPA challenge by giemsa staining-based microscopic method. It is filed as functional, organism-based.
For experiment [10], the system named is Mus musculus. As to the kind of experiment: Antiinflammatory activity in TPA-induced ICR mouse ear edema model assessed as reduction in neutrophil content AUC at 10 mg/ear applied topically measured 4 hrs post-TPA challenge by giemsa staining-based microscopic method relative to control. It is filed as functional. Set-up: scale not given: the % may be the effect or the level left.

Experiment [11] relates to Mus musculus. The experiment is described as follows: Antiinflammatory activity in TPA-induced ICR mouse ear edema model assessed as reduction in monocytes content AUC at 10 mg/ear applied topically measured 4 hrs post TPA-challenge giemsa staining-based microscopic method. Type of experiment: functional. Set-up: scale not given: the % may be the effect or the level left.

Experiment [12] concerns Mus musculus. As to the kind of experiment: Antiinflammatory activity in TPA-induced ICR mouse ear edema model assessed as reduction in neutrophil content at 10 mg/ear applied topically by giemsa staining-based microscopic method. Type of experiment: functional, organism-based. To be noted: TDE = time-dependent effect.
Experiment [13] concerns Mus musculus. The experiment is described as follows: Antiinflammatory activity in TPA-induced ICR mouse ear edema model assessed as reduction in monocyte content at 10 mg/ear applied topically by giemsa staining-based microscopic method. Type of experiment: functional, organism-based. To be noted: TDE = time-dependent effect.
Experiment [14] has as its system Mus musculus. The experiment is described as follows: Antiinflammatory activity in TPA-induced ICR mouse ear edema model assessed as reduction in number of neutrophils at 3 mg/ear applied topically measured 4 hrs post-TPA challenge by giemsa staining-based microscopic method. Type of experiment: functional, organism-based.
Experiment [15] concerns Mus musculus. The experiment is described as follows: Antiinflammatory activity in TPA-induced ICR mouse ear edema model assessed as reduction in neutrophil content AUC at 3 mg/ear applied topically measured 4 hrs post-TPA challenge by giemsa staining-based microscopic method relative to control. It is filed as functional. Set-up: scale not given: the % may be the effect or the level left.

Experiment [16] relates to Mus musculus. The experiment is described as follows: Antiinflammatory activity in TPA-induced ICR mouse ear edema model assessed as reduction in monocytes content AUC at 3 mg/ear applied topically measured 4 hrs post TPA-challenge giemsa staining-based microscopic method. Type of experiment: functional. Also noted: scale not given: the % may be the effect or the level left.

The test system of experiment [17] is Mus musculus. The experiment is described as follows: Antiinflammatory activity in TPA-induced ICR mouse ear edema model assessed as reduction in neutrophil content at 3 mg/ear applied topically by giemsa staining-based microscopic method. To be noted: TDE = time-dependent effect. It is filed as functional, organism-based.
The test system of experiment [18] is Mus musculus. The experiment is described as follows: Antiinflammatory activity in TPA-induced ICR mouse ear edema model assessed as reduction in monocyte content at 3 mg/ear applied topically by giemsa staining-based microscopic method. It is filed as functional, organism-based. To be noted: TDE = time-dependent effect.
Experiment [19] concerns Mus musculus. As to the kind of experiment: Antiinflammatory activity in TPA-induced ICR mouse ear edema model assessed as reduction in number of neutrophils at 1 mg/ear applied topically measured 4 hrs post-TPA challenge by giemsa staining-based microscopic method. It is filed as functional, organism-based.
The test system of experiment [20] is Mus musculus. The experiment is described as follows: Antiinflammatory activity in TPA-induced ICR mouse ear edema model assessed as reduction in neutrophil content AUC at 1 mg/ear applied topically measured 4 hrs post-TPA challenge by giemsa staining-based microscopic method relative to control. Type of experiment: functional. Also noted: scale not given: the % may be the effect or the level left.

For experiment [21], the system named is Mus musculus. The experiment is described as follows: Antiinflammatory activity in TPA-induced ICR mouse ear edema model assessed as reduction in monocytes content AUC at 1 mg/ear applied topically measured 4 hrs post TPA-challenge giemsa staining-based microscopic method. Set-up: scale not given: the % may be the effect or the level left. It is filed as functional.

The test system of experiment [22] is Mus musculus. As to the kind of experiment: Antiinflammatory activity in ICR mouse assessed as inhibition of TPA-induced ear edema by measuring reduction in weight of ear punches up to 1.25 mg/ear applied topically measured 4 hrs post TPA-challenge relative to control. It is filed as functional.

With `COP(=O)(OC)C(C)(COC(C)=O)N[C@@H](C)c1ccccc1` (mixture of isomers), the ED50 in the experiment on Mus musculus [1] fell in the range of 0.73 to 1.37 mg. The inhibition entry with Mus musculus [1] was “Dose-dependent effect”. Also, in the experiment on Mus musculus [2], the “Ratio ED50” value was determined as 0.67. Also, the outcome in the experiment with Mus musculus [3] was Active. Further, the Activity in the experiment on Mus musculus [4] is 46.7%; with Mus musculus [6] it was 18.9 - 34.1%; with Mus musculus [7] it was “Tde”; in the experiment with Mus musculus [8], “Tde”. In the experiment on Mus musculus [5], the “%max” value was 96.1%.
As to `COP(=O)(OC)C(C)(CO)N[C@@H](C)c1ccccc1` (mixture of isomers), in the experiment on Mus musculus [1], the ED50 fell in the range of 0.95 to 1.05 mg and the inhibition result is “Dose-dependent effect”. For the same compound, the “Ratio ED50” value in the experiment on Mus musculus [2] was 0.46. In the experiment on Mus musculus [5], the “%max” value came to 95.6%.
`COP(=O)(OC)C(C)(COC(C)=O)NCc1ccccc1` (racemic): the result in the experiment on Mus musculus [9] was Active. Besides, the ED50 with Mus musculus [1] is 0.68 to 1.46 mg. The inhibition result with Mus musculus [1] was “Dose-dependent effect”. For the same compound, the “Ratio ED50” value in the experiment on Mus musculus [2] is 0.33. For the same compound, the Activity in the experiment on Mus musculus [10] is 63%; in the experiment with Mus musculus [11], 18.9 - 34.1%; in the experiment with Mus musculus [12], “Tde”; in the experiment on Mus musculus [13], “Tde”. In addition, the “%max” value with Mus musculus [5] is given as 97.6%.
Take `COc1ccc(CCNC(C)(COC(C)=O)P(=O)(OC)OC)cc1OC` (racemic): in the experiment on Mus musculus [9], the outcome was Active. In addition, in the experiment with Mus musculus [1], the ED50 fell in the range of 0.77 to 1.29 mg. Moreover, the inhibition result with Mus musculus [1] was “Dose-dependent effect”. In the experiment with Mus musculus [2], the “Ratio ED50” value worked out at 0.37. Besides, the Activity in the experiment on Mus musculus [10] is 62.6%; in the experiment with Mus musculus [11], 18.9 - 34.1%; in the experiment on Mus musculus [12], “Tde”; in the experiment with Mus musculus [13], “Tde”. The “%max” value in the experiment on Mus musculus [5] was found to be 97%.
As to `COc1ccc(CNC(C)(COC(C)=O)P(=O)(OC)OC)cc1` (racemic), in the experiment with Mus musculus [1], the ED50 was in the range of 0.58 to 1.73 mg. Also, the “Ratio ED50” value in the experiment with Mus musculus [2] came to 0.29. Further, the “%max” value in the experiment on Mus musculus [5] is on record as 66.1%.
With `C=CCNC(C)(COC(C)=O)P(=O)(OC)OC` (racemic), in the experiment with Mus musculus [1], the ED50 was 0.59 to 1.68 mg and the inhibition result is “Dose-dependent effect”. The “Ratio ED50” value in the experiment on Mus musculus [2] is 0.28. Besides, the “%max” value with Mus musculus [5] was determined as 74.3%.
On to `COc1ccc(CCNC(C)(CO)P(=O)(OC)OC)cc1OC` (racemic), for which, in the experiment on Mus musculus [1], the ED50 lay within 0.99 to 1 mg and the inhibition result is “Dose-dependent effect”. For the same compound, the “Ratio ED50” value in the experiment on Mus musculus [2] came to 0.48. The “%max” value in the experiment with Mus musculus [5] was found to be 94.6%.
On to `COP(=O)(OC)C(C)(CO)NCc1ccccc1` (racemic), for which, in the experiment with Mus musculus [1], the ED50 lay in the range of 0.28 to 3.63 mg and the inhibition result is “Dose-dependent effect”. Besides, the “Ratio ED50” value in the experiment on Mus musculus [2] was determined as 0.13. In the experiment with Mus musculus [5], the “%max” value is 81.6%.
For the compound `COP(=O)(OC)C(C)(COC(C)=O)NCC1CCCCC1` (racemic), the result with Mus musculus [14] was Active. Also, the ED50 with Mus musculus [1] fell in the range of 0.95 to 1.05 mg. The inhibition result with Mus musculus [1] is “Dose-dependent effect”. Moreover, the “Ratio ED50” value in the experiment on Mus musculus [2] is 0.5. Moreover, the Activity in the experiment on Mus musculus [15] was 62.9%; in the experiment with Mus musculus [16], 18.9 - 34.1%; with Mus musculus [17] it was “Tde”; in the experiment on Mus musculus [18], “Tde”. Moreover, the “%max” value in the experiment on Mus musculus [5] turned out to be 93%.
Consider `COP(=O)(OC)C(C)(O)COC(C)=O` (racemic), for which the ED50 in the experiment on Mus musculus [1] lay within 0.1 to 10.14 mg. Also, the “Ratio ED50” value with Mus musculus [2] was determined as 0.04. Also, the “%max” value in the experiment with Mus musculus [5] is 47.2%.
`COc1ccc2c(c1)c(CC(=O)O)c(C)n2C(=O)c1ccc(Cl)cc1` [INDOMETHACIN]: the outcome in the experiment with Mus musculus [19] was Active. Moreover, in the experiment on Mus musculus [1], the ED50 was 0.49 mg and the inhibition result was “Dose-dependent effect”. Moreover, the Activity in the experiment with Mus musculus [20] was found to be 57.7%. Further, in the experiment with Mus musculus [21], the Activity stood at 64.2%. For the same compound, the “inhibition (INH)” value in the experiment with Mus musculus [22] is 14.6 - 99.3%. Moreover, in the experiment on Mus musculus [5], the “%max” value is listed as 99.3%.
